Assay results as given in article PMC8467136, “Enabling Efficient Folding and High-Resolution Crystallographic Analysis of Bracelet Cyclotides” (Molecules, 2021).
“And” between values parts separate entries of the source, which are not always exact repeats. Identical values can stand only once. Bridge positions count the residues as written; N and C are the ends. Peptide text beside a SMILES is read from it.

What was measured:
[1] = tested on: POPC/POPE (80:20) model membrane; experiment: Membrane binding to POPC/POPE lipid bilayers by surface plasmon resonance (SPR); settings: BIAcore T200, L1 chip, POPC/POPE (80:20) bilayer, 10 mM HEPES, 150 mM NaCl; for P/L Max, peptide-to-lipid maximum binding value: pH 7.4, injection 180 s, dissociation 600 s, nonlinear regression; for Kd: pH 7.4, nonlinear regression, read-out: KD, peptide concentration required to achieve half-maximum binding at equilibrium
Text: Cyclotides are reported to exert their biological activities via membrane binding, particularly by selective binding to lipids containing phosphatidylethanolamine (PE) headgroups. Therefore, to evaluate the functional impact of the single mutation on bracelet cyclotides, the membrane-binding ability of these variants towards PE-containing lipid bilayers was examined using surface plasmon resonance (SPR). The model membrane comprising 80% 1-palmitoyloleoyl-phosphatidylcholine (POPC) and 20% 1-palmitoyloleoyl-phosphatidylethanolamine (POPE) was used. Binding affinity was evaluated by the peptide-to-lipid maximum binding value (P/L max, mol/mol) and the peptide concentration required to achieve half-maximum binding at equilibrium (KD value, μM). […] The negative effect of the [I11G] bracelet cyclotide mutation on lipid binding was expected, as the mutation reduces surface hydrophobicity, a previously reported determinant of membrane binding. The SPR dose-response curves and sensorgrams are shown in Figure S4 in Supplementary Material.
The binding affinity of bracelet cyclotides and their variants toward lipid bilayers was studied using SPR, as described previously. Two synthetic lipids, 1-palmitoyl-2-oleoyl-glycero-3-phosphocholine (POPC) and 1-palmitoyl-2-oleoyl-sn-glycero-3-phosphoethanolamine (POPE), were purchased from Avanti Polar Lipids (USA). Briefly, homogenous, small, unilamellar vesicles composed of POPC/POPE (80:20, mol/mol) were obtained by extruding the vesicle suspension through a 50-nm pore size polycarbonate membrane. L1 sensor chips and BIAcore T200 instrument were used (Cytiva, Marlborough, MA, USA). After the lipid was loaded and formed a bilayer membrane on the L1 chip, peptide solutions were injected over the lipid surface for 180 s and the dissociation was monitored for 600 s. Peptides were tested at concentrations ranging from 4–32 μM. Peptide-to-lipid molar ratio and KD values were calculated by nonlinear regression using GraphPad Prism software (version 8.3.1). Peptide solutions and lipid vesicles were prepared in HEPES buffer (10 mM HEPES, 150 mM NaCl, pH 7.4, filtered) for SPR studies.

[2] = tested on: HeLa cells; experiment: Cytotoxicity against HeLa cells, resazurin assay; format: cell-based; settings: 5000 cells/well, 24-h incubation with peptide, then resazurin 18 h, triplicate, mean ± SEM
Description: To further confirm the activity of these mutants, their cytotoxicity against HeLa cancer cells was evaluated along with wild-type bracelet cyclotides. […] Of the four [I11G] mutants, the hyen D analogue had the highest activity, possibly because hyen D has one more hydrophobic residue in loop 3 compared to the other three cyclotides, which may contribute to its higher lipid-binding capacity (P/L max = 0.37) and help offset the hydrophobicity loss caused by the [I11G] mutation.
The cytotoxicity of the peptides was evaluated using the resazurin assay, as described previously. HeLa cells were seeded at 5000 cells/well in a 96-well, flat-bottomed plate one day prior to the experiments. Peptide solutions were prepared in water and incubated with HeLa cells at concentrations ranging from 16 to 0.125 μM or 8 to 0.063 μM in triplicate (final concentrations). Water and 1% Triton X-100 (TX) were applied as negative and positive control, respectively. After 24-h incubation, 10 μL of resazurin (0.05%, w/v) was added and incubated with cells for another 18 h. The absorbance was measured at 540 and 620 nm on a microplate reader (Infinite M1000 Pro microplate reader, Tecan, Switzerland). The percentage of cell death was quantified by calculating the absorbance ratio, R (R = absorbance at 620/540), and applying the following equation: % Cell death = (Rsample − RH2O)/(RTX − RH2O) × 100. Data were analyzed with GraphPad Prism software (version 8.3.1) using Specific binding with Hill slope algorithm.

Row | Compound | P/L Max, peptide-to-lipid maximum binding value [1] | Kd [1] [µM] | CC50 on HeLa (half maximum cytotoxic concentration) [2] [µM]
1 | CC[C@H](C)[C@@H]1NC(=O)[C@@H]2CSSC[C@@H]3NC(=O)[C@H](C(C)C)NC(=O)[C@H](CCCCN)NC(=O)[C@H](CC(=O)O)NC(=O)[C@H]([C@@H](C)O)NC(=O)[C@@H]4CSSC[C@H](NC(=O)[C@H](CO)NC(=O)[C@H](CCC(=O)O)NC(=O)CNC(=O)[C@H](CSSC[C@H](NC(=O)CNC(=O)[C@H]([C@@H](C)CC)NC(=O)[C@H](C(C)C)NC(=O)CNC(=O)[C@H](CO)NC1=O)C(=O)N[C@@H](CO)C(=O)N4)NC(=O)[C@@H]1CCCN1C(=O)[C@H]([C@@H](C)O)NC(=O)CNC(=O)[C@H](CC(N)=O)NC(=O)[C@H](CC(C)C)NC(=O)[C@H](Cc1ccc(O)cc1)NC3=O)C(=O)N[C@@H](C(C)C)C(=O)N[C@@H](Cc1ccc(O)cc1)C(=O)N[C@@H](CC(C)C)C(=O)N1CCC[C@H]1C(=O)N2 [[I11L]kB5] (cyclo(CGESCVYLPCISGVIGCSCTDKVCYLNGTP); disulfide 1-17, 5-19, 10-24) | 0.22 ± 0.00 mol/mol | 4.95 ± 0.12 | 4.31 ± 0.48
2 | CC[C@H](C)[C@@H]1NC(=O)[C@H](C)NC(=O)[C@H](CO)NC(=O)[C@H](CO)NC(=O)[C@H]([C@@H](C)CC)NC(=O)[C@@H]2CSSC[C@@H]3NC(=O)[C@H](C(C)C)NC(=O)[C@H](CCCCN)NC(=O)[C@H](CO)NC(=O)[C@H](CCCCN)NC(=O)[C@@H]4CSSC[C@H](NC(=O)[C@H](CO)NC(=O)[C@H](CCC(=O)O)NC(=O)CNC(=O)[C@H](CSSC[C@H](NC(=O)CNC1=O)C(=O)N[C@@H](CO)C(=O)N4)NC(=O)[C@@H]1CCCN1C(=O)[C@H]([C@@H](C)CC)NC(=O)CNC(=O)[C@H](CC(N)=O)NC(=O)[C@H](CCCNC(=N)N)NC(=O)[C@H](Cc1ccc(O)cc1)NC3=O)C(=O)N[C@@H](C(C)C)C(=O)N[C@@H](Cc1c[nH]c3ccccc13)C(=O)N[C@@H]([C@@H](C)CC)C(=O)N1CCC[C@H]1C(=O)N2 [cyO2, cycloviolacin O2, reference compound] (cyclo(AIGCSCKSKVCYRNGIPCGESCVWIPCISS); disulfide 4-18, 6-22, 11-27) | 0.28 ± 0.00 mol/mol | 3.9 ± 0.11 | 1.05 ± 0.06
3 | CC[C@H](C)[C@@H]1NC(=O)CNC(=O)[C@H](CC(N)=O)NC(=O)[C@H](CCCNC(=N)N)NC(=O)[C@H](Cc2ccc(O)cc2)NC(=O)[C@@H]2CSSC[C@@H]3NC(=O)[C@@H]4CCCN4C(=O)[C@H]([C@@H](C)CC)NC(=O)[C@H](Cc4c[nH]c5ccccc45)NC(=O)[C@H](C(C)C)NC(=O)[C@@H]4CSSC[C@H](NC(=O)[C@H](CO)NC(=O)[C@H](CSSC[C@H](NC(=O)[C@@H]5CCCN5C1=O)C(=O)NCC(=O)N[C@@H](CCC(=O)O)C(=O)N[C@@H](CO)C(=O)N4)NC(=O)CNC(=O)[C@H](C(C)C)NC(=O)[C@H](C)NC(=O)[C@H](CO)NC(=O)[C@H]([C@@H](C)O)NC(=O)[C@H](CC(C)C)NC3=O)C(=O)N[C@@H](CCCCN)C(=O)N[C@@H](CO)C(=O)N[C@@H](CCCCN)C(=O)N[C@@H](C(C)C)C(=O)N2 [cyO9, cycloviolacin O9, reference compound] (cyclo(AVGCSCKSKVCYRNGIPCGESCVWIPCLTS); disulfide 4-18, 6-22, 11-27) | 0.30 ± 0.01 mol/mol | 4.83 ± 0.17 | 2.35 ± 0.13
4 | CC[C@H](C)[C@@H]1NC(=O)[C@H](C)NC(=O)[C@H](C)NC(=O)[C@H]([C@@H](C)O)NC(=O)[C@H](Cc2ccccc2)NC(=O)[C@@H]2CSSC[C@@H]3NC(=O)[C@H](C(C)C)NC(=O)[C@H](CCCCN)NC(=O)[C@H](CO)NC(=O)[C@H](CCCCN)NC(=O)[C@@H]4CSSC[C@H](NC(=O)[C@H](CO)NC(=O)[C@H](CCC(=O)O)NC(=O)CNC(=O)[C@H](CSSC[C@H](NC(=O)CNC1=O)C(=O)N[C@@H](CO)C(=O)N4)NC(=O)[C@@H]1CCCN1C(=O)[C@H](Cc1ccccc1)NC(=O)CNC(=O)[C@H](CC(N)=O)NC(=O)[C@H](CCCCN)NC(=O)[C@H](Cc1ccc(O)cc1)NC3=O)C(=O)N[C@@H](C(C)C)C(=O)N[C@@H](Cc1ccc(O)cc1)C(=O)N[C@@H]([C@@H](C)CC)C(=O)N1CCC[C@H]1C(=O)N2 [hyen D, reference compound] (cyclo(AAIGCSCKSKVCYKNGFPCGESCVYIPCFT); disulfide 5-19, 7-23, 12-28) | 0.37 mol/mol and 0.37 ± 0.01 mol/mol | 4.48 ± 0.17 | 0.85 ± 0.03
5 | CC[C@H](C)[C@@H]1NC(=O)[C@@H]2CSSC[C@@H]3NC(=O)[C@H](C(C)C)NC(=O)[C@H](CCCCN)NC(=O)[C@H](CC(=O)O)NC(=O)[C@H]([C@@H](C)O)NC(=O)[C@@H]4CSSC[C@H](NC(=O)[C@H](CO)NC(=O)[C@H](CCC(=O)O)NC(=O)CNC(=O)[C@H](CSSC[C@H](NC(=O)CNC(=O)[C@H]([C@@H](C)CC)NC(=O)[C@H](C(C)C)NC(=O)CNC(=O)[C@H](CO)NC1=O)C(=O)N[C@@H](CO)C(=O)N4)NC(=O)[C@@H]1CCCN1C(=O)[C@H]([C@@H](C)O)NC(=O)CNC(=O)[C@H](CC(N)=O)NC(=O)[C@H](CC(C)C)NC(=O)[C@H](Cc1ccc(O)cc1)NC3=O)C(=O)N[C@@H](C(C)C)C(=O)N[C@@H](Cc1ccc(O)cc1)C(=O)N[C@@H]([C@@H](C)CC)C(=O)N1CCC[C@H]1C(=O)N2 [kB5, kalata B5, reference compound] (cyclo(CGESCVYIPCISGVIGCSCTDKVCYLNGTP); disulfide 1-17, 5-19, 10-24) | 0.22 ± 0.00 mol/mol | 5.02 ± 0.17 | 3.11 ± 0.20
